Experimental data taken from US8383581B2, “Short-chain peptides as parathyroid hormone (PTH) receptor agonist” (Cadila Healthcare Limited, priority 2009, dated 2013).
Where a SMILES comes first, the peptide text is derived from it. [ ]: non-standard residue; d: D form. ξ: configuration not given here. ξαMeBip(2'-Et,4'-OMe) = CCc1cc(OC)ccc1-c1ccc(CC(C)(N)C(=O)O)cc1; ξBip(2'-Et-4'-OMe) = CCc1cc(OC)ccc1-c1ccc(CC(N)C(=O)O)cc1; ξαMe(hhPhe) = CC(N)(CCCc1ccccc1)C(=O)O; hhPhe = N[C@@H](CCCc1ccccc1)C(=O)O; hArg = N=C(N)NCCCC[C@H](N)C(=O)O; ξαMeNle = CCCCC(C)(N)C(=O)O; ξαMeV = CC(C)C(C)(N)C(=O)O; ξαMeM = CSCCC(C)(N)C(=O)O; Nle = CCCC[C@H](N)C(=O)O; Ac5c = NC1(C(=O)O)CCCC1; Aib = CC(C)(N)C(=O)O

Assays:
Assay type in all cases: in vitro ADME
[1] = Stability of peptides in human liver microsomes; conditions: human, microsomes; for % degradation of peptides in 24 h when incubated with liver microsomes: 2 μM, pH 7.8
In short: (§1)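 Peptides at 2 μM final incubated 0–24 h at 37 °C (50 mM triethanolamine-HCl, pH 7.8) in each matrix, matrix level set to degrade ~50% PTH(1-34) in 1 h; TFA-quenched, C18 HPLC at 206 nm with ESI-MS peak identification; percent degradation from peak areas at each time point.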

[2] = Stability of peptides in simulated intestinal fluid (pH 7.5); conditions: pH 7.5; for half-life: simulated gi fluid; for % degradation of peptides in 24 h when incubated with simulated intestinal fluid: 2 μM
In short: as §1

[3] = Stability of peptides in human plasma; conditions: human, plasma; for metabolised at 24 h, 2 μM: pH 7.8
In short: as §1

[4] = Stability of peptides in simulated gastric fluid (pH 1.5; HCl, NaCl and Pepsin); conditions: pH 1.5; for % degradation of peptides in 24 h when incubated with simulated gastric fluid: 2 μM; for half-life: simulated gi fluid

## CCc1cc(OC)ccc1-c1ccc(CC(C)(NC(=O)[C@H](CCCCN)NC(=O)[C@H](C)NC(=O)[C@H](CCCCNC(=N)N)NC(=O)[C@H](CCC(N)=O)NC(=O)[C@H](Cc2c[nH]cn2)NC(=O)[C@H](CCSC)NC(=O)[C@H](CC(C)C)NC(=O)[C@H](CCC(N)=O)NC(=O)[C@@H](NC(=O)[C@H](CCC(=O)O)NC(=O)C(C)(C)NC(=O)[C@@H](NC(=O)C(C)(C)N)C(C)C)[C@@H](C)CC)C(=O)N[C@@H](CCCc2ccccc2)C(N)=O)cc1 (some centres unmarked) [Seq. ID. 890] (H-[Aib]V[Aib]EIQLMHQ[hArg]AK[ξαMeBip(2'-Et,4'-OMe)][hhPhe]-NH2)
[1]
  half-life (t1/2) in liver microsomes: (5) h
  % degradation of peptides in 24 h when incubated with liver microsomes: 32%
[2]
  half-life: > 1440 min
  % degradation of peptides in 24 h when incubated with simulated intestinal fluid: 00%
[3]
  half-life: > 1440 min
  metabolised at 24 h, 2 μM: 0%
[4]
  % degradation of peptides in 24 h when incubated with simulated gastric fluid: 00%
  half-life: > 1440 min

## CCCC[C@H](NC(=O)[C@H](CC(C)C)NC(=O)[C@H](CCC(N)=O)NC(=O)[C@@H](NC(=O)[C@H](CCC(=O)O)NC(=O)C(C)(C)NC(=O)[C@@H](NC(=O)C1(NC(=O)C(C)(N)C(C)C)CCCC1)C(C)C)[C@@H](C)CC)C(=O)N[C@@H](Cc1c[nH]cn1)C(=O)N[C@@H](CCC(N)=O)C(=O)N[C@@H](CCCCNC(=N)N)C(=O)N[C@@H](C)C(=O)N[C@@H](CCCCN)C(=O)NC(Cc1ccc(-c2ccc(OC)cc2CC)cc1)C(=O)NC(C)(CCCc1ccccc1)C(N)=O (some centres unmarked) [Seq. ID. 895] (H-[ξαMeV][Ac5c]V[Aib]EIQL[Nle]HQ[hArg]AK[ξBip(2'-Et-4'-OMe)][ξαMe(hhPhe)]-NH2)
[1]
  half-life (t1/2) in liver microsomes: (5) h
  % degradation of peptides in 24 h when incubated with liver microsomes: 33%
[2]
  half-life: > 1440 min
  % degradation of peptides in 24 h when incubated with simulated intestinal fluid: 00%
[3]
  half-life: > 1440 min
  metabolised at 24 h, 2 μM: 0%
[4]
  % degradation of peptides in 24 h when incubated with simulated gastric fluid: 00%
  half-life: > 1440 min

## CCc1cc(OC)ccc1-c1ccc(CC(C)(NC(=O)[C@H](CCCCNC(=N)N)NC(=O)[C@H](C)NC(=O)[C@H](CCCCNC(=N)N)NC(=O)[C@H](CCC(N)=O)NC(=O)[C@H](Cc2c[nH]cn2)NC(=O)[C@H](CCSC)NC(=O)[C@H](CC(C)C)NC(=O)[C@H](CCC(N)=O)NC(=O)[C@@H](NC(=O)[C@H](CCC(=O)O)NC(=O)C(C)(C)NC(=O)[C@@H](NC(=O)C(C)(C)N)C(C)C)[C@@H](C)CC)C(=O)N[C@@H](CCCc2ccccc2)C(N)=O)cc1 (some centres unmarked) [Seq. ID. 898] (H-[Aib]V[Aib]EIQLMHQ[hArg]A[hArg][ξαMeBip(2'-Et,4'-OMe)][hhPhe]-NH2)
[1]
  half-life (t1/2) in liver microsomes: (5) h
  % degradation of peptides in 24 h when incubated with liver microsomes: 26%
[2]
  half-life: > 1440 min
  % degradation of peptides in 24 h when incubated with simulated intestinal fluid: 00%
[3]
  half-life: > 1440 min
  metabolised at 24 h, 2 μM: 0%
[4]
  % degradation of peptides in 24 h when incubated with simulated gastric fluid: 00%
  half-life: > 1440 min

## CCc1cc(OC)ccc1-c1ccc(CC(NC(=O)[C@H](CCCCNC(=N)N)NC(=O)[C@H](C)NC(=O)[C@H](CCCCNC(=N)N)NC(=O)[C@H](CCC(N)=O)NC(=O)[C@H](Cc2c[nH]cn2)NC(=O)[C@H](CCSC)NC(=O)[C@H](CC(C)C)NC(=O)[C@H](CCC(N)=O)NC(=O)[C@@H](NC(=O)[C@H](CCC(=O)O)NC(=O)C(C)(C)NC(=O)[C@@H](NC(=O)C2(NC(=O)C(C)(N)C(C)C)CCCC2)C(C)C)[C@@H](C)CC)C(=O)NC(C)(CCCc2ccccc2)C(N)=O)cc1 (some centres unmarked) [Seq. ID. 906] (H-[ξαMeV][Ac5c]V[Aib]EIQLMHQ[hArg]A[hArg][ξBip(2'-Et-4'-OMe)][ξαMe(hhPhe)]-NH2)
[1]
  half-life: 30 min
  % degradation of peptides in 24 h when incubated with liver microsomes: 100%
[2]
  half-life: 30 min
  % degradation of peptides in 24 h when incubated with simulated intestinal fluid: 100%
[3]
  half-life (t1/2) in human plasma: (9) h
  metabolised at 24 h, 2 μM: 78%
[4]
  % degradation of peptides in 24 h when incubated with simulated gastric fluid: 100%
  half-life: 30 min

## CCc1cc(OC)ccc1-c1ccc(CC(C)(NC(=O)[C@H](CCCCNC(=N)N)NC(=O)[C@H](C)NC(=O)[C@H](CCCCNC(=N)N)NC(=O)[C@H](CCC(N)=O)NC(=O)[C@H](Cc2c[nH]cn2)NC(=O)C(C)(CCSC)NC(=O)[C@H](CC(C)C)NC(=O)[C@H](CCC(N)=O)NC(=O)[C@@H](NC(=O)[C@H](CCC(=O)O)NC(=O)C(C)(C)NC(=O)[C@@H](NC(=O)C(C)(C)N)C(C)C)[C@@H](C)CC)C(=O)N[C@@H](CCCc2ccccc2)C(N)=O)cc1 (some centres unmarked) [Seq. ID. 910] (H-[Aib]V[Aib]EIQL[ξαMeM]HQ[hArg]A[hArg][ξαMeBip(2'-Et,4'-OMe)][hhPhe]-NH2)
[1]
  half-life: 30 min
  % degradation of peptides in 24 h when incubated with liver microsomes: 100%
[2]
  half-life: 30 min
  % degradation of peptides in 24 h when incubated with simulated intestinal fluid: 100%
[3]
  half-life (t1/2) in human plasma: (9) h
  metabolised at 24 h, 2 μM: 77%
[4]
  % degradation of peptides in 24 h when incubated with simulated gastric fluid: 100%
  half-life: 30 min

## CCCCC(C)(NC(=O)[C@H](CC(C)C)NC(=O)[C@H](CCC(N)=O)NC(=O)[C@@H](NC(=O)[C@H](CCC(=O)O)NC(=O)C(C)(C)NC(=O)[C@@H](NC(=O)C(C)(C)NC(=O)[C@@H](N)C(C)C)C(C)C)[C@@H](C)CC)C(=O)N[C@@H](Cc1c[nH]cn1)C(=O)N[C@@H](CCC(N)=O)C(=O)N[C@@H](CCCCNC(=N)N)C(=O)N[C@@H](C)C(=O)N[C@@H](CCCCNC(=N)N)C(=O)NC(C)(Cc1ccc(-c2ccc(OC)cc2CC)cc1)C(=O)N[C@@H](CCCc1ccccc1)C(N)=O (some centres unmarked) [Seq. ID. 915] (H-V[Aib]V[Aib]EIQL[ξαMeNle]HQ[hArg]A[hArg][ξαMeBip(2'-Et,4'-OMe)][hhPhe]-NH2)
[1]
  half-life: 30 min
  % degradation of peptides in 24 h when incubated with liver microsomes: 100%
[2]
  half-life: 30 min
  % degradation of peptides in 24 h when incubated with simulated intestinal fluid: 100%
[3]
  half-life (t1/2) in human plasma: (9) h
  metabolised at 24 h, 2 μM: 80%
[4]
  % degradation of peptides in 24 h when incubated with simulated gastric fluid: 100%
  half-life: 30 min

## CCc1cc(OC)ccc1-c1ccc(CC(NC(=O)[C@H](CCCCNC(=N)N)NC(=O)[C@H](C)NC(=O)[C@H](CCCCNC(=N)N)NC(=O)[C@H](CCC(N)=O)NC(=O)[C@H](Cc2c[nH]cn2)NC(=O)C(C)(CCSC)NC(=O)[C@H](CC(C)C)NC(=O)[C@H](CCC(N)=O)NC(=O)[C@@H](NC(=O)[C@H](CCC(=O)O)NC(=O)C(C)(C)NC(=O)[C@@H](NC(=O)C(C)(C)NC(=O)[C@@H](N)C(C)C)C(C)C)[C@@H](C)CC)C(=O)NC(C)(CCCc2ccccc2)C(N)=O)cc1 (some centres unmarked) [Seq. ID. 920] (H-V[Aib]V[Aib]EIQL[ξαMeM]HQ[hArg]A[hArg][ξBip(2'-Et-4'-OMe)][ξαMe(hhPhe)]-NH2)
[1]
  half-life (t1/2) in liver microsomes: (5) h
  % degradation of peptides in 24 h when incubated with liver microsomes: 35%
[2]
  half-life: > 1440 min
  % degradation of peptides in 24 h when incubated with simulated intestinal fluid: 00%
[3]
  half-life: > 1440 min
  metabolised at 24 h, 2 μM: 0%
[4]
  % degradation of peptides in 24 h when incubated with simulated gastric fluid: 00%
  half-life: > 1440 min
